Data taken from PubChem BioAssay (NCI).
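The compound was tested at five concentrations on cells cultured in 96-well plates, with a 48-hour exposure period. At the TGI there is no net growth.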

How the values were obtained:
Experiment in all cases: NCI anticancer screen, dose series, 48 h
[1] = system: 786-0 renal
[2] = system: A498 renal
[3] = system: A549 NSCLC
[4] = system: ACHN renal
[5] = system: BT-549 breast
[6] = system: CAKI-1 renal
[7] = system: CCRF-CEM leukemia
[8] = system: DU-145 prostate
[9] = system: EKVX NSCLC
[10] = system: HCC-2998 colon
[11] = system: HCT-116 colon
[12] = system: HCT-15 colon
[13] = system: HL-60(TB) leukemia
[14] = system: HOP-62 NSCLC
[15] = system: HOP-92 NSCLC
[16] = system: HS 578T breast
[17] = system: HT29 colon
[18] = system: IGROV1 ovarian
[19] = system: K-562 leukemia
[20] = system: KM12 colon
[21] = system: LOX IMVI melanoma
[22] = system: M14 melanoma
[23] = system: MALME-3M melanoma
[24] = system: MCF7 breast
[25] = system: MDA-MB-231 breast
[26] = system: MDA-MB-435
[27] = system: MDA-N
[28] = system: MOLT-4 leukemia
[29] = system: NCI-H23 lung
[30] = system: NCI-H460 lung
[31] = system: NCI-H522 lung
[32] = system: NCI/ADR-RES ovarian
[33] = system: OVCAR-3 ovarian
[34] = system: OVCAR-4 ovarian
[35] = system: OVCAR-5 ovarian
[36] = system: OVCAR-8 ovarian
[37] = system: PC-3 prostate
[38] = system: RPMI-8226 leukemia
[39] = system: RXF 393 renal
[40] = system: SF-268 CNS
[41] = system: SK-MEL-2 melanoma
[42] = system: SK-OV-3 ovarian
[43] = system: SN12C renal
[44] = system: SNB-19 CNS
[45] = system: SNB-75 CNS
[46] = system: SR leukemia
[47] = system: SW-620 colon
[48] = system: T-47D breast
[49] = system: TK-10 renal
[50] = system: U251 CNS
[51] = system: UACC-257 melanoma
[52] = system: UACC-62 melanoma
[53] = system: UO-31 renal
[54] = system: COLO 205 colon
[55] = system: NCI-H226 lung
[56] = system: SF-295 CNS
[57] = system: SF-539 CNS
[58] = system: SK-MEL-28 melanoma
[59] = system: SK-MEL-5 melanoma

CC#CC#C/C=C1/O[C@]2(CCC(OC(=O)CC(C)C)CO2)[C@@H]2O[C@H]12 (stereo partly drawn)
TGI [1]: 49.3 µM
TGI [2]: > 100 µM
TGI [3]: > 100 µM
TGI [4]: 44.7 µM
TGI [5]: 56.3 µM
TGI [6]: 34.7 µM
TGI [7]: 27.5 µM
TGI [8]: > 100 µM
TGI [9]: 84.3 µM
TGI [10]: 37.5 µM
TGI [11]: 33.3 µM
TGI [12]: 53.1 µM
TGI [13]: 42.9 µM
TGI [14]: > 100 µM
TGI [15]: 66 µM
TGI [16]: > 100 µM
TGI [17]: 35.4 µM
TGI [18]: > 100 µM
TGI [19]: > 100 µM
TGI [20]: > 100 µM
TGI [21]: 35.9 µM
TGI [22]: 47.7 µM
TGI [23]: 47.7 µM
TGI [24]: > 100 µM
TGI [25]: 62.7 µM
TGI [26]: 60.4 µM
TGI [27]: 54.3 µM
TGI [28]: 54.6 µM
TGI [29]: 60 µM
TGI [30]: > 100 µM
TGI [31]: 37.4 µM
TGI [32]: 64.4 µM
TGI [33]: 52.3 µM
TGI [34]: > 100 µM
TGI [35]: 72.9 µM
TGI [36]: > 100 µM
TGI [37]: 72.5 µM
TGI [38]: 50.3 µM
TGI [39]: 42.2 µM
TGI [40]: 54.1 µM
TGI [41]: 52.5 µM
TGI [42]: > 100 µM
TGI [43]: 41.2 µM
TGI [44]: > 100 µM
TGI [45]: > 100 µM
TGI [46]: > 100 µM
TGI [47]: 43.7 µM
TGI [48]: 48.3 µM
TGI [49]: 61.3 µM
TGI [50]: 54.6 µM
TGI [51]: > 100 µM
TGI [52]: 66.6 µM
TGI [53]: 36.5 µM

O=C1C(Cl)C(c2cc3cc(Br)ccc3nc2Cl)N1c1ccc(F)c(Cl)c1 (stereo not drawn)
TGI [1]: 2.25 µM
TGI [2]: 15.1 µM
TGI [3]: 43.5 µM
TGI [4]: 24.2 µM
TGI [5]: 25.9 µM
TGI [54]: 22.5 µM
TGI [8]: 22.1 µM
TGI [9]: 3.62 µM
TGI [10]: 21.7 µM
TGI [11]: 18.9 µM
TGI [12]: 27.6 µM
TGI [13]: 18.6 µM
TGI [14]: 6.39 µM
TGI [15]: 2.72 µM
TGI [16]: 75 µM
TGI [17]: 26.5 µM
TGI [18]: 2.14 µM
TGI [19]: 17 µM
TGI [20]: 7.77 µM
TGI [22]: 21.8 µM
TGI [23]: 22.8 µM
TGI [24]: 20.1 µM
TGI [25]: 24.8 µM
TGI [26]: 17.7 µM
TGI [27]: 22.3 µM
TGI [28]: 4.74 µM
TGI [55]: 40.2 µM
TGI [29]: 19 µM
TGI [30]: 24.4 µM
TGI [31]: 0.719 µM
TGI [32]: 29.8 µM
TGI [33]: 12.8 µM
TGI [34]: 4.96 µM
TGI [35]: 24.8 µM
TGI [36]: 54 µM
TGI [37]: 34.2 µM
TGI [38]: 5.23 µM
TGI [39]: 17.3 µM
TGI [40]: 14.2 µM
TGI [56]: 23.4 µM
TGI [57]: 3.66 µM
TGI [41]: 23.5 µM
TGI [58]: 34.5 µM
TGI [59]: 19.8 µM
TGI [42]: 26.9 µM
TGI [43]: 20.5 µM
TGI [44]: 23.1 µM
TGI [45]: 21.4 µM
TGI [46]: 2.61 µM
TGI [47]: 33 µM
TGI [48]: 27.4 µM
TGI [49]: 17 µM
TGI [50]: 12.5 µM
TGI [51]: 25.7 µM
TGI [52]: 21.2 µM
TGI [53]: 0.29 µM

COCOc1cc(OCOC)cc(C(=O)Oc2ccccc2)c1
TGI [1]: > 100 µM
TGI [2]: > 100 µM
TGI [3]: > 100 µM
TGI [4]: > 100 µM
TGI [5]: > 100 µM
TGI [6]: > 100 µM
TGI [54]: > 100 µM
TGI [8]: > 100 µM
TGI [9]: > 100 µM
TGI [10]: > 100 µM
TGI [11]: > 100 µM
TGI [12]: > 100 µM
TGI [13]: > 100 µM
TGI [14]: > 100 µM
TGI [15]: > 100 µM
TGI [16]: > 100 µM
TGI [17]: > 100 µM
TGI [18]: > 100 µM
TGI [19]: > 100 µM
TGI [20]: > 100 µM
TGI [21]: > 100 µM
TGI [22]: > 100 µM
TGI [23]: > 100 µM
TGI [24]: > 100 µM
TGI [25]: > 100 µM
TGI [26]: > 100 µM
TGI [27]: > 100 µM
TGI [28]: > 100 µM
TGI [55]: > 100 µM
TGI [29]: > 100 µM
TGI [30]: > 100 µM
TGI [31]: > 100 µM
TGI [32]: > 100 µM
TGI [33]: > 100 µM
TGI [34]: > 100 µM
TGI [35]: > 100 µM
TGI [36]: > 100 µM
TGI [37]: > 100 µM
TGI [38]: > 100 µM
TGI [39]: > 100 µM
TGI [40]: > 100 µM
TGI [56]: > 100 µM
TGI [57]: > 100 µM
TGI [41]: > 100 µM
TGI [58]: > 100 µM
TGI [59]: > 100 µM
TGI [42]: > 100 µM
TGI [43]: > 100 µM
TGI [44]: > 100 µM
TGI [45]: > 100 µM
TGI [46]: > 100 µM
TGI [47]: > 100 µM
TGI [48]: > 100 µM
TGI [49]: > 100 µM
TGI [50]: > 100 µM
TGI [51]: > 100 µM
TGI [52]: > 100 µM
TGI [53]: > 100 µM

O=C(CSc1nc2ccccc2c2ccccc12)c1ccccc1
TGI [1]: > 100 µM
TGI [2]: > 100 µM
TGI [3]: > 100 µM
TGI [4]: > 100 µM
TGI [5]: > 100 µM
TGI [6]: > 100 µM
TGI [54]: > 100 µM
TGI [8]: > 100 µM
TGI [9]: > 100 µM
TGI [11]: > 100 µM
TGI [12]: > 100 µM
TGI [13]: > 100 µM
TGI [14]: > 100 µM
TGI [15]: > 100 µM
TGI [16]: 0.0967 µM
TGI [17]: > 100 µM
TGI [18]: > 100 µM
TGI [19]: > 100 µM
TGI [20]: > 100 µM
TGI [21]: > 100 µM
TGI [22]: > 100 µM
TGI [23]: > 100 µM
TGI [24]: > 100 µM
TGI [25]: > 100 µM
TGI [26]: > 100 µM
TGI [27]: > 100 µM
TGI [28]: > 100 µM
TGI [55]: > 100 µM
TGI [29]: > 100 µM
TGI [30]: > 100 µM
TGI [31]: > 100 µM
TGI [32]: > 100 µM
TGI [33]: > 100 µM
TGI [34]: > 100 µM
TGI [35]: > 100 µM
TGI [36]: > 100 µM
TGI [37]: > 100 µM
TGI [38]: > 100 µM
TGI [39]: > 100 µM
TGI [40]: > 100 µM
TGI [56]: > 100 µM
TGI [57]: > 100 µM
TGI [41]: > 100 µM
TGI [58]: > 100 µM
TGI [59]: > 100 µM
TGI [43]: > 100 µM
TGI [44]: > 100 µM
TGI [45]: 57.9 µM
TGI [46]: > 100 µM
TGI [47]: > 100 µM
TGI [48]: > 100 µM
TGI [49]: > 100 µM
TGI [50]: > 100 µM
TGI [51]: > 100 µM
TGI [52]: > 100 µM
TGI [53]: > 100 µM

C[N+](C)(C)CCN(Cc1cccs1)c1ccccn1
TGI [1]: > 100 µM
TGI [2]: > 100 µM
TGI [3]: > 100 µM
TGI [4]: > 100 µM
TGI [5]: > 100 µM
TGI [6]: > 100 µM
TGI [7]: > 100 µM
TGI [54]: > 100 µM
TGI [8]: > 100 µM
TGI [10]: > 100 µM
TGI [11]: > 100 µM
TGI [12]: > 100 µM
TGI [13]: > 100 µM
TGI [14]: > 100 µM
TGI [15]: 73.9 µM
TGI [16]: > 100 µM
TGI [18]: > 100 µM
TGI [19]: > 100 µM
TGI [20]: > 100 µM
TGI [21]: > 100 µM
TGI [22]: > 100 µM
TGI [23]: > 100 µM
TGI [24]: > 100 µM
TGI [25]: > 100 µM
TGI [26]: > 100 µM
TGI [27]: > 100 µM
TGI [55]: > 100 µM
TGI [29]: > 100 µM
TGI [30]: > 100 µM
TGI [31]: > 100 µM
TGI [32]: > 100 µM
TGI [33]: > 100 µM
TGI [34]: > 100 µM
TGI [36]: > 100 µM
TGI [37]: > 100 µM
TGI [38]: > 100 µM
TGI [39]: > 100 µM
TGI [40]: > 100 µM
TGI [56]: > 100 µM
TGI [57]: > 100 µM
TGI [41]: > 100 µM
TGI [58]: > 100 µM
TGI [59]: > 100 µM
TGI [42]: > 100 µM
TGI [43]: > 100 µM
TGI [44]: > 100 µM
TGI [45]: > 100 µM
TGI [46]: > 100 µM
TGI [47]: > 100 µM
TGI [48]: > 100 µM
TGI [49]: > 100 µM
TGI [50]: > 100 µM
TGI [51]: > 100 µM
TGI [52]: > 100 µM
TGI [53]: > 100 µM
